Consider two compounds from US20230301981A1, “TLR7/8 ANTAGONISTS AND USES THEREOF” (Merck Patent GmbH, priority 2020, published 2023).

One test addresses T1, TLR7 (Homo sapiens, UniProt Q9NYK1).
T1 sequence (Q9NYK1 27-1049): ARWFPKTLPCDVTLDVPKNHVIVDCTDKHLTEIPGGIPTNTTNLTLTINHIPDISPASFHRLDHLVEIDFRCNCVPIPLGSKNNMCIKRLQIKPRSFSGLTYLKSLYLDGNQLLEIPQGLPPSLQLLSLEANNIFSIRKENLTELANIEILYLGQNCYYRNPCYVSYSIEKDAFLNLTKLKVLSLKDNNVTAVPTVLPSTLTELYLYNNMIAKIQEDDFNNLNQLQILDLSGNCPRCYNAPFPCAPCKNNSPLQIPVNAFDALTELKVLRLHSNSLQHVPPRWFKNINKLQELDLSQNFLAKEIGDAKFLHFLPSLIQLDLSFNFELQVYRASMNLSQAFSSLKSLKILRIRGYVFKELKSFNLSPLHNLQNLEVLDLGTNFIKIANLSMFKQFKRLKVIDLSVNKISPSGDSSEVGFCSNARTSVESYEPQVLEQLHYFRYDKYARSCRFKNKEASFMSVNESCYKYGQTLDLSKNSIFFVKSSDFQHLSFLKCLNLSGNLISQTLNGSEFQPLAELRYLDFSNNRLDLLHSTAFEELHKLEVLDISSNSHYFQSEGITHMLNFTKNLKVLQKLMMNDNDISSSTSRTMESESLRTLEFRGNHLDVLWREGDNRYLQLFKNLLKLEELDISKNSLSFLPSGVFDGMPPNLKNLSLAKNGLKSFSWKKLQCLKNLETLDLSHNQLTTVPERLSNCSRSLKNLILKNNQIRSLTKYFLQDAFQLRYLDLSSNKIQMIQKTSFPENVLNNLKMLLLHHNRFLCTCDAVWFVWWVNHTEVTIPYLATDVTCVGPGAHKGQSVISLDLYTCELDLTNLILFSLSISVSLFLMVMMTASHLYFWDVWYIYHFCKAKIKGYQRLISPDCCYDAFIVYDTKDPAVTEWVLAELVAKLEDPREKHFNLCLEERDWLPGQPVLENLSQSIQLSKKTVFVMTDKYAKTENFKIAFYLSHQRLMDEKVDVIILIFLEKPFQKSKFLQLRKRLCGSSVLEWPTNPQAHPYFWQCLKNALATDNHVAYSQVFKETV
Kind of test: HEK293 TLR7/NFKb reporter cell assay with R848 agonist. It counts as cell-based. On the set-up: expressed in transfected cells; host or cells: HEK293. How it is done:
Into 384 CulturePlates (Corning 3707) was placed 5000 c/w of HEK293 TLR7/NFKb reporter cells in 30 µL DMEM without phenol red and 10% i.a. FCS and 2 mM L-glutamine. The cells were incubated for 24 h at 37° C., 10% carbon dioxide and 90% relative humidity. 3 µL of controls, standards, and compounds were dispensed to wells, incubated for 30 min then 3 µL of R848 agonist (Resiquimod) in 20 mM HEPES buffer was added. After incubation for 5 hours, it was allowed to stand at room temperature for 15 min. 10 µL of Steady-Glo substrate reagent was added and assay plates were shaken for 5 min at 1500 rpm. The assay plate was allowed to sit for 30 min at room temperature and then read on an EnVision plate reader.

In test [1] the test system is complex primary human cell systems. In words: BioMAP Diversity PLUS phenotypic panel. It counts as cell-based. Particulars: hydroxychloroquine at 33 µM versus Pyronaridine at 3.3 µM. As to the method: Pyronaridine was profiled in the BioMAP® Diversity PLUS (BioSeek LLC, South San Francisco, CA) panel comprised of a well characterized set of complex primary human cell systems at 10, 3.3, 1.1, and 0.3 µM. Pyronaridine was tested across 12 BioMAP® Systems containing early passage primary human cells cultured alone or as cocultures and stimulated with various proinflammatory or immunomodulatory stimuli. […] A BioMAP activity profile was generated based on the levels of various readout parameters including cytokines or growth factors, expression of surface molecules, and cell proliferation. […]
Differentiating biomarkers are defined when one profile has a readout outside of the significance envelope with an effect size > 20% (|log10 ratio| > 0.1), and the readout for the other profile is either inside the envelope or in the opposite direction.

Read-outs that look alike come from different tables or passages of the source.

Turning to `COc1ccc2nc3cc(Cl)ccc3c(Nc3cc(CN4CCCC4)c(O)c(CN4CCCC4)c3)c2n1` [Compound 1, Pyronaridine], the IC50 at TLR7 (Example 4 results table, assay/readout not specified, read-out: Potency) is less than 1 µM; at TLR7 (HEK293 TLR7/NFKb reporter cells, R848 agonist, read-out: IC50 TLR7 (IL6 READOUT) HEK TRANSFECTED), 5 µM.

Turning to `CCN(CCO)CCCC(C)Nc1ccnc2cc(Cl)ccc12` (stereo not drawn) [HYDROXY-CHLOROQUINE HCQ, hydroxychloroquine], in test [1], the “BioMAP Diversity PLUS profile, overlay comparison” value is “noticeable similar pattern”.
